Assay results from US20110098180A1, “Herbicide-Resistant Plants, And Polynucleotides And Methods For Providing Same” (United States Department of Agriculture, priority 2002, published 2011).

Assays:
Assay in all cases: Cross-resistance testing, His-tagged column-purified PDS (Table 2A)
[1] = target: hydrilla PDS Arg^304 → Cysteine, His-tagged (Hydrilla verticillata, UniProt Q66PY0, R304C); type: biochemical; conditions: Cysteine at 304; His-tagged, column-purified PDS; read-out: I50
Description: (§1) In further cross-resistance testing similar to that described above, an alternative production and purification protocol was used in the preparation of the mutant PDS proteins, and the activity of the proteins was again tested using the same testing protocol. The alternative approach utilized His-tagging and column purification of the mutant PDS protins. The results are shown in. Table 2A below.
(§2) The plasmid pHy4ATG5 was made by cloning the Phytoene Desaturase (pds) gene from Hydrilla verticillata, including 323 by upstream of the beginning of the putative mature protein, into the vector TOPO4 (Invitrogen, Carlsbad, Calif.): The 1-323 by region contained three potential start codons (ATG)(positions 1, 114 and 225 bp) in frame with pds. In order to express pds in bacteria, deletion clones were made for each of the three potential start codons with and without ATG. Only the results for possible origins of translation 1 and 225 by (named ORF and 3ORF) are reported here. pds was PCR amplified and subcloned into TOPO4 using pHy4ATG5 as template and the reverse primer RPDS—1849 (5′[…] 3′). The forward primers used were ORF (5′ […] 3′), ORF-ATG (5′ […] 3′), 3_ORF (5′[…] 3′) and 3_ORF-ATG (5′ […] 3′). The resulting plasmids were named pORF, pORF-ATG (minus ATG codon), p3ORF and p3ORF-ATG. The pds-containing EcoRI-fragments of these plasmids were subcloned into the EcoRI site of pRSETb vector (Invitrogen) for Histidine tagging and bacterial expression. The resulting constructs were pHy4SET, pHy4SET-ATG (minus ATG), p3ORFSET and p3ORFSET-ATG.
(§3) Plasmid p3ORF-ATG was later mutagenized at the amino acid 304 of pds to replace the amino acid Arginine (Arg) by Histidine (His), Threonine (Thr), Serine (Ser), or Cysteine (Cys), using the QuickChange™ Site-Directed Mutagenesis Kit of Stratagene (La Jolla, Calif.). Primers used to replace Arg by His were Hyd-His-For (5′[…] 3′) and Hyd-His-Rev (5′ […] 3′); to replace Arg by Thr we used primers Hyd-Thr-For (5′[…] 3′) and Hyd-Thr-Rev (5′[…] 3′); to replace Arg by Ser we used Hyd-Ser-For (5′[…] 3′) and Hyd-Ser-Rev (5′[…] 3′); and Arg was replaced by Cys using Hyd-Cys-For (5′[…] 3′) and Hyd-Cys-Rev (5′[…] 3′). Resulting plasmids were named: p3ORFHisSet-ATG, p3ORFThrSet-ATG, p3ORFSerSet-ATG and p3ORFCysSet-ATG.
(§4) All pRSET derived constructs were transformed into BL21(DE3)pLysS cells (Invitrogen), induced with IPTG for protein expression, and the His tag overproduced proteins analyzed by Western blot using Anti-HisG antibody (Invitrogen, cat. #R940-25).
(§5) When working with His-tagged PDS proteins expressed as described in Example 4, the purified protein used for testing was prepared as follows. BL21(DE3)pLysS cells were grown overnight in 500 ml Luria Broth (LB) supplemented with carbenicillin (100 mg/l) and cloramphenicol (60 mg/l) at 37° C., and induced with 0.3 mM isopropylthio-β-D-galactoside (IPTG) for 3 hrs. Cells were lysed using a French press (Spectronics Instrument) at 20,000 psi and overexpressed PDS was purified on a nickel activated Hitrap Chelating HP column according to the manufacturers instructions (Amersham Bioscience).
(§6) Generally, PDS protein fractions prepared as described above (Non-His-tagged and His-tagged) were mixed with a soluble fraction from phytoene-producing E. coli cells. For the phytoene producing cells, a plasmid construct containing the genes GGPP synthase and phytoene synthase from Erwinia uredovora, transformed into the appropriate E. coli strain, was used (see, Misawa et al., J. of Bacteriology 177:6575, 1995). This E. coli strain was separately cultured and lysed, and its soluble components collected (“the EB extract”) in a fashion similar to that described above for the PDS-producing cells.
(§7) His-tagged, purified proteins prepared as described above were transferred to the assay buffer on a PD10 column (Amersham Bioscience) and the concentration was adjusted to 100 μg/mL. […]

[2] = tested on: hydrilla PDS Arg^304 → Cysteine, His-tagged; type: biochemical, Hydrilla verticillata; conditions: Cysteine at 304 relative to Arginine; Table 2A
Description: as §1, §2, §3, §4, §5, §6, §7

[3] = target: hydrilla PDS Arg^304 → Histidine, His-tagged (Hydrilla verticillata, UniProt Q66PY0, R304H); type: biochemical; conditions: Histidine at 304; His-tagged, column-purified PDS; read-out: I50
Description: as §1, §2, §3, §4, §5, §6, §7

[4] = tested on: hydrilla PDS Arg^304 → Histidine, His-tagged; type: biochemical, Hydrilla verticillata; conditions: Histidine at 304 relative to Arginine; Table 2A
Description: as §1, §2, §3, §4, §5, §6, §7

[5] = target: hydrilla PDS Arg^304 → Serine, His-tagged (Hydrilla verticillata, UniProt Q66PY0, R304S); type: biochemical; conditions: Serine at 304; His-tagged, column-purified PDS; read-out: I50
Description: as §1, §2, §3, §4, §5, §6, §7

[6] = tested on: hydrilla PDS Arg^304 → Serine, His-tagged; type: biochemical, Hydrilla verticillata; conditions: Serine at 304 relative to Arginine; Table 2A
Description: as §1, §2, §3, §4, §5, §6, §7

Sequence of hydrilla PDS Arg^304 → Histidine, His-tagged (Hydrilla verticillata, UniProt Q66PY0, R304H) (Q66PY0 77-580 R304H): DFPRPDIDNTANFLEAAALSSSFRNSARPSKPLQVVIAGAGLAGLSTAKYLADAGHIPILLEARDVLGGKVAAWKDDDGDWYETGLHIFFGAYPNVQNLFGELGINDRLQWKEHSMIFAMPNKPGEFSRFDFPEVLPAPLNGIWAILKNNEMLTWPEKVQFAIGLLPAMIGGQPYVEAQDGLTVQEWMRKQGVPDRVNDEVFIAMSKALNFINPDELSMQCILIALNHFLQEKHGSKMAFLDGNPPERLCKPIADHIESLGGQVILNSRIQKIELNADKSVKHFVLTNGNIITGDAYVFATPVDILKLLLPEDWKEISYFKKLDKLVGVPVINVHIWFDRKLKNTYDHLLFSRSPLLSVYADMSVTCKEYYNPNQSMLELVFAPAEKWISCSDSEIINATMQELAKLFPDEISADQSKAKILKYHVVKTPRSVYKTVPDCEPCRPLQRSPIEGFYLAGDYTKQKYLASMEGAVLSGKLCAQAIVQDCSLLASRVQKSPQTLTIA
Sequence of hydrilla PDS Arg^304 → Cysteine, His-tagged (Hydrilla verticillata, UniProt Q66PY0, R304C) (Q66PY0 77-580 R304C): as the sequence (Q66PY0 77-580 R304H) above, with H228C counted along it
Sequence of hydrilla PDS Arg^304 → Serine, His-tagged (Hydrilla verticillata, UniProt Q66PY0, R304S) (Q66PY0 77-580 R304S): as the sequence (Q66PY0 77-580 R304H) above, with H228S counted along it

Compound: CCC(Oc1ccc(F)c(C(F)(F)F)c1)C(=O)NCc1ccccc1 (stereo not drawn) [Beflubutamid]
- IC50 [1]: 232 µM
- R/S [2]: 3.2
- IC50 [3]: 126 µM
- R/S [4]: 1.75
- IC50 [5]: 465 µM
- R/S [6]: 6.5

Compound: O=C(Nc1ccc(F)cc1F)c1cccnc1Oc1cccc(C(F)(F)F)c1 [Diflufenican]
- IC50 [1]: 241 µM
- R/S [2]: 2.4
- IC50 [3]: 103 µM
- R/S [4]: 1.0
- IC50 [5]: 223 µM
- R/S [6]: 2.2

Compound: O=C1C(Cl)C(CCl)CN1c1cccc(C(F)(F)F)c1 (stereo not drawn) [Fluorochloridone]
- IC50 [1]: 283 µM
- R/S [2]: 2.2
- IC50 [3]: 364 µM
- R/S [4]: 2.8
- IC50 [5]: 518 µM
- R/S [6]: 4.0

Compound: CNC1=C(c2cccc(C(F)(F)F)c2)C(=O)C(c2ccccc2)O1 (stereo not drawn) [Flurtamone]
- IC50 [1]: 1150 µM
- R/S [2]: 3.8
- IC50 [3]: 630 µM
- R/S [4]: 2.1
- IC50 [5]: 707 µM
- R/S [6]: 2.4

Compound: CNc1cnn(-c2cccc(C(F)(F)F)c2)c(=O)c1Cl [Norflurazon]
- IC50 [1]: 1870 µM
- R/S [2]: 37.0
- IC50 [3]: 486 µM
- R/S [4]: 9.7
- IC50 [5]: 4100 µM
- R/S [6]: 82.0

Compound: O=C(Nc1ccc(F)cc1)c1cccc(Oc2cccc(C(F)(F)F)c2)n1 [Piconilafen, Picolinafen]
- IC50 [1]: 96 µM
- R/S [2]: 0.3
- IC50 [3]: 112 µM
- R/S [4]: 0.3
- IC50 [5]: 62 µM
- R/S [6]: 0.2

Compound: Fluridone
- R/S [2]: 2.6
- R/S [4]: 4.8
- R/S [6]: 2.0
